Measurements reported in US6482829B2, “Substituted heterocyclic siprodecane compound active as an antagonist of neurokinin 1 receptor” (Hoffmann-La Roche Inc., priority 2000, dated 2002).

Molecular target: human NK1 receptors (Homo sapiens, UniProt P25103)
Assay: Affinity for the NK1 receptor, [3H]substance P displacement binding assay
Settings: human NK1 receptors in CHO cells (Semliki virus expression system); [3H]substance P 0.6 nM; 60 min at room temperature
Experimental: The affinity of test compounds for the NK1 receptor was evaluated at human NK1 receptors in CHO cells infected with the human NK1 receptor (using the Semliki virus expression system) and radiolabelled with [^3H]substance P (final concentration 0.6 nM). Binding assays were performed in HEPES buffer (50 mM, pH 7.4) containing BSA (0.04%) leupeptin (8 μg/ml), MnCl2 (3 mM) and phosphoramidon (2 μM). Binding assays consisted of 250 μl of membrane suspension (1.25×10^5 cells/assay tube), […] of buffer of displacing agent and 125 μl of [^3H]substance P. Displacement curves were determined with at least seven concentrations of the compound. The assay tubes were incubated for 60 min at room temperature after which time the tube contents were rapidly filtered under vacuum through GF/C filters presoaked for 60 min with PEI (0.3%) with 2×2 ml washes of HEPES buffer (50 mM, pH 7.4). The radioactivity retained on the filters was measured by scintillation counting. All assays were performed in triplicate in at least 2 separate experiments.

human NK1 receptors, sequence (P25103 whole entry): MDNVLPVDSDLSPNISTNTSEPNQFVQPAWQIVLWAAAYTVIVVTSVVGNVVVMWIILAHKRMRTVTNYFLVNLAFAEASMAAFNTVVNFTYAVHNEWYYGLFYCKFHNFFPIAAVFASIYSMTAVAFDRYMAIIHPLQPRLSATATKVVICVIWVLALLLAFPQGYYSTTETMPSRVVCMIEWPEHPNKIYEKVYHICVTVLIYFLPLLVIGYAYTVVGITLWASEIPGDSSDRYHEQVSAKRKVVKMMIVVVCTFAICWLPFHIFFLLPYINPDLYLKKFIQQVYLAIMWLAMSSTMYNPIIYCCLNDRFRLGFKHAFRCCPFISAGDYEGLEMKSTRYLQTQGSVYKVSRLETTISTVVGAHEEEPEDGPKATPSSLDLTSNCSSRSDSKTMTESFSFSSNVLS

| Molecule | pKi (affinity to the NK-1 receptor) |
| --- | --- |
| Rac-8-(3,5-Bis-trifluoromethyl-benzoyl)-3-(2-methoxy-ethyl)-2-methyl-1-o-tolyl-1,3,8-triaza-spiro[4.5]decan-4-one [Example 137] | 8.34 |
| Cc1ccccc1N1CN(Cc2cccnc2)C(=O)C12CCN(C(=O)c1cc(C(F)(F)F)cc(C(F)(F)F)c1)CC2 [Example 45, 8-(3,5-Bis-trifluoromethyl-benzoyl)-3-pyridin-3-yl-methyl-1-o-tolyl-1,3,8-triaza-spiro[4.5]decan-4-one] | 8.29 |

Same assay, conditions: human NK1 receptors in CHO cells (Semliki virus expression system); [3H]substance P 0.6 nM; 60 min at room temperature; read-out: pKi (affinity to the NK-1 receptor) (converted)

| Molecule | Ki |
| --- | --- |
| Cc1ccccc1N1CN(CCN2CCCC2)C(=O)C12CCN(C(=O)c1cc(C(F)(F)F)cc(C(F)(F)F)c1)CC2 [Example 58, 8-(3,5-Bis-trifluoromethyl-benzoyl)-3-(2-pyrrolidin-1-yl-ethyl)-1-o-tolyl-1,3,8-triaza-spiro[4.5]decan-4-one] | 8.32 nM |
| CN1CN(c2ccccc2Cl)C2(CCN(C(=O)c3cc(C(F)(F)F)cc(C(F)(F)F)c3)CC2)C1=O [Example 70, 8-(3,5-Bis-trifluoromethyl-benzoyl)-1-(2-chloro-phenyl)-3-methyl-1,3,8-triaza-spiro[4.5]decan-4-one] | 4.27 nM |
| COc1nc(OC)nc(N2CN(c3ccc(Cl)c(Cl)c3)C3(CCN(C(=O)c4cc(C(F)(F)F)cc(C(F)(F)F)c4)CC3)C2=O)n1 [Example 39, 8-(3,5-Bis-trifluoromethyl-benzoyl)-1-(3,4-dichloro-phenyl)-3-(4,6-dimethoxy-[1,3,5]triazin-2-yl)-1,3,8-triaza-spiro[4.5]decan-4-one] | 93.3 nM |
| COc1nc(OC)nc(N2CN(c3ccccc3)C3(CCN(C(=O)c4cc(C(F)(F)F)cc(C(F)(F)F)c4)CC3)C2=O)n1 [Example 6, 8-(3,5-Bis-trifluoromethyl-benzoyl)-3-(4,6-dimethoxy-[1,3,5]triazin-2-yl)-1-phenyl-1,3,8-triaza-spiro[4.5]decan-4-one] | 2.19 nM |
| O=C(c1cc(C(F)(F)F)cc(C(F)(F)F)c1)N1CCC2(CC1)C(=O)N(c1ncc(Cl)cc1Cl)CN2c1ccccc1 [Example 26, 8-(3,5-Bis-trifluoromethyl-benzoyl)-3-(3,5-dichloro-pyridin-2-yl)-1-phenyl-1,3,8-triaza-spiro[4.5]decan-4-one] | 33.9 nM |
| CC1NC(=O)C2(CCN(C(=O)c3cc(C(F)(F)F)cc(C(F)(F)F)c3)CC2)N1c1ccccc1 (racemic) [Example 91, (rac)-8-(3,5-Bis-trifluoromethyl-benzoyl)-2-methyl-1-phenyl-1,3,8-triaza-spiro[4.5]decan-4-one] | 7.59 nM |

The remaining lines, values ahead:

| Ki | Molecule |
| --- | --- |
| 11 nM | Cc1ccccc1C1=CN(C)C(=O)C12CCN(C(=O)c1cc(C(F)(F)F)cc(C(F)(F)F)c1)CC2 [Example 170, 8-(3,5-Bis-trifluoromethyl-benzoyl)-2-methyl-4-o-tolyl-2,8-diaza-spiro[4.5]dec-3-en-1-one] |
| 7.59 nM | Cc1ccccc1C1CNC(=O)C12CCN(C(=O)c1cc(C(F)(F)F)cc(C(F)(F)F)c1)CC2 (racemic) [Example 176, (rac)-8-(3,5-Bis-trifluoromethyl-benzoyl)-4-o-tolyl-2,8-diaza-spiro[4.5]decan-1-one] |

Tested on: not given
Assay: not given
Settings: not given

| Molecule | melting point |
| --- | --- |
| O=C(c1cc(C(F)(F)F)cc(C(F)(F)F)c1)N1CCC2(CC1)C(=O)NCN2c1ccc(Cl)c(Cl)c1 [Example 65, 8-(3,5-Bis-trifluoromethyl-benzoyl)-1-(3,4-dichloro-phenyl)-1,3,8-triaza-spiro[4.5]decan-4-one] | 220 to 222 °C |
| O=C(c1cc(C(F)(F)F)cc(C(F)(F)F)c1)N1CCC2(CC1)C(=O)NCN2c1ccccc1Cl [Example 67, 8-(3,5-Bis-trifluoromethyl-benzoyl)-1-(2-chloro-phenyl)-1,3,8-triaza-spiro[4.5]decan-4-one] | 157 to 159 °C |
| O=C(c1cc(C(F)(F)F)cc(C(F)(F)F)c1)N1CCC2(CC1)C(=O)N(c1cc(Cl)ncn1)CN2c1ccccc1 [Example 61, 8-(3,5-Bis-trifluoromethyl-benzoyl)-3-(6-chloro-pyrimidin-4-yl)-1-phenyl-1,3,8-triaza-spiro[4.5]decan-4-one] | 212 to 214 °C |
| O=C(c1cc(C(F)(F)F)cc(C(F)(F)F)c1)N1CCC2(CC1)C(=O)NCN2c1ccccc1 [Example 1, 8-(3,5-Bis-trifluoromethyl-benzoyl)-1-phenyl-1,3,8-triaza-spiro[4.5]decan-4-one] | 251 °C |
| O=C(c1cc(C(F)(F)F)cc(C(F)(F)F)c1)N1CCC2(CC1)C(=O)NCN2c1ccc(Cl)cc1 [Example 64, 8-(3,5-Bis-trifluoromethyl-benzoyl)-1-(4-chloro-phenyl)-1,3,8-triaza-spiro[4.5]decan-4-one] | 233 to 235 °C |

Second part, the molecule after the results:

| melting point | Molecule |
| --- | --- |
| 153 to 154 °C | O=C(c1cc(C(F)(F)F)cc(C(F)(F)F)c1)N1CCC2(CC1)C(=O)NC(=O)N2c1ccccc1Cl |
| 235 to 236 °C | O=C(c1cc(C(F)(F)F)cc(C(F)(F)F)c1)N1CCC2(CC1)C(=O)NCN2c1cccc(Cl)c1 [Example 63, 8-(3,5-Bis-trifluoromethyl-benzoyl)-1-(3-chloro-phenyl)-1,3,8-triaza-spiro[4.5]decan-4-one] |
| 164 to 168 °C | Cc1ccccc1N1CNC(=O)C12CCN(C(=O)c1cc(C(F)(F)F)cc(C(F)(F)F)c1)CC2 [Example 66, 8-(3,5-Bis-trifluoromethyl-benzoyl)-1-o-tolyl-1,3,8-triaza-spiro[4.5]decan-4-one] |
